Test results: patent US20230002355A1 (NANJING SANHOME PHARMACEUTICAL CO., LTD., priority 2019, published 2023)
Like-named read-outs stand apart in the source and are kept apart here. Each block holds one compound with its values, some of them ahead of it.

Assays:
NCI-H358 cells = assay: Cell proliferation inhibition test (CCK-8); type: cell-based; settings: NCI-H358 human non-small cell lung cancer cells, 168 h, read-out: NIH358 cell proliferation inhibition IC50
Procedure: Test compounds: The compounds prepared in examples and comparative example of the present disclosure was tested. Each compound was formulated with DMSO into 20 mM. The concentrations of the compounds acting on NCI-H358 cells were 100 μM, 25 μM, 6.25 μM, 1.56 μM, 0.391 μM, 0.098 μM, 0.024 μM, 0.006 μM, 0.0015 μM, and 0.00038 μM successively.
Human non-small cell lung cancer cells NCI-H358 were purchased from the American Type Culture Collection (ATCC).
Reagents: The CCK-8 proliferation inhibition detection kit was purchased from Jiangsu KeyGEN BioTECH Co., Ltd. The CKX41 inverted microscope was purchased from Olympus, Japan. The multi-mode microplate reader was purchased from Molecular Devices, USA. The cell culture incubator was purchased from Thermo, USA.
Cell recovery: A NCI-H358 cell cryogenic vial was taken out from a liquid nitrogen tank, placed in water bath at 37° C., and shaked gently to allow it to thaw. The thawed cryogenic vial was disinfected with alcohol cotton, and opened to aspirate the cell fluid into a centrifuge tube. To the centrifuge tube, 1 mL of serum-containing complete medium was added and well-mixed. The centrifuge tube was placed into a centrifuge, for centrifugation at 1000 rpm for 5 min. Then the supernatant was discarded, and complete medium was added to completely dissipate and resuspend the cells through repeated pipetting. The cells were seeded in petri dishes at appropriate concentrations and cultured in a CO2 incubator at 37° C., with 5% CO2, 95% humidified air.
Cell passage: After the cells grew to about 80-90% confluence, the original culture medium (1640 culture medium+10% FBS+1% penicillin-streptomycin+1 mM sodium pyruvate) was discarded, and 1 mL of PBS was added to wash away the residual medium and then discarded. 1 mL of trypsin digestion solution was added to digest for 1-2 min. […] The cell suspension was collected by gently pipetting, and centrifuged at 1000 rpm for 5 min. After discarding the supernatant, the cells was resuspended in complete medium, seeded in petri dishes at the required density, and then cultured in a CO2 incubator at 37° C., with 5% CO2, 95% humidified air. Depending on cell growth, the culture medium was changed or passaged every 2-3 days.
After NCI-H358 cell passage, the cells were resuspended in fresh culture medium (1640 culture medium+3% FBS+1% penicillin-streptomycin+1 mM sodium pyruvate), and counted. The cells were seeded into a 96-well culture plate at a density of 1.5×10^4 cells/mL, with each well added 100 μL thereto (ie, 1.5×10^3 cells/well). After 24 h, 100 μL of fresh culture medium containing different drug concentrations (2×) was added to the old culture medium. The final concentrations of the compounds were 100 μM, 25 μM, 6.25 μM, 1.56 μM, 0.391 μM, 0.098 μM, 0.024 μM, 0.006 μM, 0.0015 μM, and 0.00038 μM, with each concentration group set two replicate wells. The cells were […] in the incubator again for 168 h. The culture medium in wells was discarded as thoroughly as possible, and 100 μL of culture medium containing CCK-8 (CCK-8:culture medium=1:10) was added. After a certain time of culture in the incubator, the 96-well plate was taken out of the incubator, and allowed to equilibrate at room temperature for 5 min. The absorbance (OD value) at 450 nm was detected in a multi-mode plate reader, and the cell proliferation inhibition rate was calculated. The calculation formula was Inhibition (%)=100−(ODexperiment well−ODblank well)/(ODsolvent control well−ODblank well)×100. According to different drug concentrations and their corresponding inhibition rates, IC50 curves were plotted using GraghPad 5.0 software, to analyze the data and to obtain final IC50.

[1] = Pharmacokinetic experiment in mice; type: in vivo; settings: mouse, plasma, male BALB/c mice; for bioavailability: I.G. 10 mg/kg vs IV 1 mg/kg, read-out: bioavailability F; for AUC(0-inf) / AUC(0-t) / Cmax / half-life: I.G., 10 mg/kg
Procedure: Compounds: The compounds of the present disclosure prepared in the above examples were tested. The drug vehicle was Captisol/50 mM sodium acetate with pH 4.6 (10%/90%, w/v %). Oral drugs were formulated into a 0.5 mg/mL clear solution. Intravenous drug were formulated into a 0.1 mg/mL clear solution.
Animals: Male BALB/c mice, SPF grade, were purchased from Shanghai SIPPR-Bk Lab Animal Co., Ltd, with a weight of 18-20 g, and adapted for 2-3 days before experiments.
Instrument: API4500-type Triple Quadrupole LC/MS System, from AB, United States, equipped with electrospray ion source (ESI) and dual pumps LC-30AD; SIL-30AC autosampler; CTO-30AC column oven; DGU-20A3R degasser; AnalystQSA01.01 chromatography workstation; Milli-Q ultrapure water device (Millipore Inc); QilinbeierVortex-5 shaker; HITACHI CF16RX II desktop high-speed freezing centrifuge.
(1) There were 3 mice per group. The compounds of the examples of the present disclosure were given by intragastric administration (I.G.) at 10 mg/kg, or the compounds of the examples of the present disclosure were given by intravenous (IV) administration at 1 mg/kg.
(2) At 5 min, 15 min, 30 min, 1 h, 2 h, 6 h, 10 h, and 24 h after the intragastric administration or intravenous administration, blood was collected from the orbital venous plexus in heparinized EP tubes (0.6 ML), and centrifuged at 8000 rpm/min for 5 min. The upper plasma was taken, frozen at −20° C. and analyzed by LC-MS/MS.
(3) Plasma drug concentration-time curves were plotted according to blood drug concentration data obtained from the above-mentioned step. Pharmacokinetic parameters were calculated by using WinNonlin software.

SMILES: Nc1nc(N2CCC3(CC2)Oc2ccccc2[C@H]3N)cnc1Sc1ccnc(N)c1Cl [Compound A]
IC50 (NCI-H358 cells): 18.3 nM | bioavailability ([1]; oral): 51.2%

IC50 (NCI-H358 cells): 1.6 nM
SMILES: Cn1c(N2CCC3(CC2)Cc2ccccc2[C@H]3N)nc(N)c(Sc2cccnc2C(F)(F)F)c1=O [Example 1, (S)-6-amino-2-(1-amino-1,3-dihydrospiro[indene-2,4′-piperidin]-1′-yl)-3-methyl-5-((2-(trifluoromethyl)pyridin-3-yl)thio)pyrimidin-4(3H)-one]

IC50 (NCI-H358 cells): 5.6 nM
SMILES: Cn1c(N2CCC3(CC2)Cc2ccccc2[C@H]3N)nc(N)c(Sc2ccc(N)nc2Cl)c1=O [Example 4, (S)-6-amino-2-(1-amino-1,3-dihydrospiro[indene-2,4′-piperidine]-1′-yl)-3-methyl-5-((6-amino-2-chloropyridin-3-yl)thio)pyrimidin-4(3H)-one]

IC50 (NCI-H358 cells): 2.8 nM
SMILES: Cc1ncccc1Sc1c(N)nc(N2CCC3(CC2)Cc2ccccc2[C@H]3N)n(C)c1=O [Example 6, (S)-6-amino-2-(1-amino-1,3-dihydrospiro[indene-2,4′-piperidine]-1′-yl)-3-methyl-5-((2-methylpyridin-3-yl)thio)pyrimidin-4(3H)-one]

IC50 (NCI-H358 cells): 3.3 nM
SMILES: Cn1c(N2CCC3(CC2)Cc2ccccc2[C@H]3N)nc(N)c(Sc2ccnc(N)c2Cl)c1=O [Example 8]

IC50 (NCI-H358 cells): 1.5 nM
SMILES: Cn1c(N2CCC3(CC2)Cc2ccccc2[C@H]3N)nc(N)c(Sc2cccc(C#N)c2Cl)c1=O [Example 9, (S)-3-((4-amino-2-(1-amino-1,3-dihydrospiro[indene-2,4′-piperidine]-1′-yl)-1-methyl-6-oxo-1,6-dihydropyrimidin-5-yl)thio)-2-chlorobenzonitrile]

IC50 (NCI-H358 cells): 3.9 nM | bioavailability ([1]; po): 78.3% | AUC(0-inf) ([1]; po): 21600 ng·h/mL | AUC(0-t) ([1]; po): 19400 ng·h/mL | Cmax ([1]; po): 1590 ng/mL | half-life ([1]; po): 7.3 h
SMILES: Nc1nccc(Sc2cnc(N3CCC4(CC3)Oc3ccccc3[C@H]4N)n3ccnc23)c1Cl [Example 45]

IC50 (NCI-H358 cells): 8.5 nM
SMILES: Nc1nccc(Sc2cnc(N3CCC4(CC3)Cc3ncccc3[C@H]4N)n3ccnc23)c1Cl [Example 46, (S)-1′-(8-((2-amino-3-chloropyridin-4-yl)thio)imidazo[1,2-c]pyrimidin-5-yl)-5,7-dihydrospiro[cyclopenta[b]pyridine-6,4′-piperidine]-5-amine]

IC50 (NCI-H358 cells): 16.7 nM
SMILES: Nc1nccc(Sc2cnc(N3CCC4(CC3)Oc3ccccc3[C@H]4N)n3ccnc23)c1F [Example 47, (R)-1′-(8-(((2-amino-3-fluoropyridin-4-yl)thio)imidazo[1,2-c]pyrimidin-5-yl)-3H-spiro[benzofuran-2,4′-piperidin]]-3-amine]

IC50 (NCI-H358 cells): 12 nM | bioavailability ([1]; po): 81.2% | AUC(0-inf) ([1]; po): 37000 ng·h/mL | AUC(0-t) ([1]; po): 24200 ng·h/mL | Cmax ([1]; po): 1890 ng/mL | half-life ([1]; po): 15.6 h
SMILES: Cc1nc(N2CCC3(CC2)Oc2ccccc2[C@H]3N)n2ccnc2c1-c1cccc(Cl)c1Cl [Example 48, (R)-1′-(8-(2,3-dichlorophenyl)-7-methylimidazo[1,2-c]pyrimidin-5-yl)-3H-spiro[benzofuran-2,4′-piperidine]-3-amine]

IC50 (NCI-H358 cells): 13.3 nM
SMILES: COc1cccc(-c2c(C)nc(N3CCC4(CC3)Oc3ccccc3[C@H]4N)n3ccnc23)c1Cl [Example 49, (R)-1′-(8-(2-chloro-3-methoxyphenyl)-7-methylimidazo[1,2-c]pyrimidin-5-yl)-3H-spiro[benzofuran-2,4′-piperidine]-3-amine]

IC50 (NCI-H358 cells): 6 nM
SMILES: Cn1c(N2CCC3(CC2)Oc2ccccc2[C@H]3N)nc2n[nH]c(-c3ccnc(NC4CC4)c3Cl)c2c1=O [Example 51]

IC50 (NCI-H358 cells): 4.9 nM | bioavailability ([1]; po): 74.3% | AUC(0-inf) ([1]; po): 7410 ng·h/mL | AUC(0-t) ([1]; po): 6520 ng·h/mL | Cmax ([1]; po): 1390 ng/mL | half-life ([1]; po): 3 h
SMILES: Cn1c(N2CCC3(CC2)Oc2ccccc2[C@H]3N)nc(N)c(Sc2cccnc2C(F)(F)F)c1=O [Example 53, (R)-6-amino-2-(3-amino-3H-spiro[benzofuran-2,4′-piperidine]-1′-yl)-3-methyl-5-((2-(trifluoromethyl)pyridin-3-yl)thio)pyrimidin-4(3H)-one]
